Assays:
[1] = system: Peptococcus prevoti; test: Standard agar-dilution assay, anaerobic bacteria, Table IX; format: cell-based; conditions: 24-hour incubation
[2] = system: E. tenella AND E. acervulina; test: Anticoccidial feeding test in chicks, E. tenella and E. acervulina (Table XII); format: in vivo; design: Average Lesion Score, Intestinal / Average Lesion Score, Cecal: scale not given here; conditions: for Percent Mortality: due to coccidiosis; for Percent Weight Gain: normal controls = 100%
Procedure: ^1 6 replicates; 5 birds each
^2 Infection inoculum 48 hours post-medication onset

[3] = system: E. tenella AND E. maxima; test: Anticoccidial feeding test in chicks, E. tenella and E. maxima (Table XI); format: in vivo; design: Average Lesion Score, Total Intestinal / Average Lesion Score, Cecal: scale not given here; Mortality: unit not given here; conditions: for Mortality: due to coccidiosis
Procedure: ^1 70,000 oocysts/bird of each of E. tenella and E. maxima
^2 Infected 48 hours postmedication; terminated seven days
^3 Four replicates; five birds/replicate

[4] = system: Bacteriodes fragilis ssp fragilis 1936B; test: Standard agar-dilution assay, anaerobic bacteria, Table IX; format: cell-based; conditions: 24-hour incubation
[5] = system: Streptococcus pyogenes (Group A); test: Conventional disc-diffusion method, Table VII; format: cell-based
Source text: (§1) The activity of A-32887 (Na-K salt) against illustrative bacteria, as measured by the conventional disc-diffusion method, is summarized in Table VI.

[6] = system: Streptococcus sp. (Group D); test: Conventional disc-diffusion method, Table VII; format: cell-based
Source text: as §1

[7] = system: Diplococcus pneumoniae; test: Conventional disc-diffusion method, Table VII; format: cell-based
Source text: as §1

[8] = system: Staphylococcus aureus 3055; test: Conventional disc-diffusion method, Table VII; format: cell-based
Source text: as §1

[9] = system: Clostridium perfringens; format: cell-based; conditions: 24-hour incubation
[10] = system: acute swine dysentery; test: Swine dysentery test in infected pigs (Table XVII); format: in vivo; conditions: 100 g/ton in feed
Procedure: In another aspect the A-32887 compounds are useful in the prevention and control of swine dysentery. A preferred method of administration to swine is by incorporation of an appropriate amount of an A-32887 compound into the feed ration. […] In this test, groups of four pigs were challenged orally with 5.0 ml of a colon-content/tissue suspension prepared from pigs suffering from acute swine dysentery. Treated pigs were challenged 24 hours after initiating feed treatment. The test was carried out over a period of 26 days, observing pigs daily, and weighing them weekly and on day 26.
*Fecal material for each group was rated daily with 0= normal, 1= slight
blood or mucus, 2= moderate blood or mucus, 3= marked blood or mucus.
Index is the total score per treatment for 25 days.

[11] = system: Bacteriodes fragilis ssp thetaiotaomicron; test: Standard agar-dilution assay, anaerobic bacteria, Table IX; format: cell-based; conditions: 24-hour incubation
[12] = system: Bacteriodes melaninogenicus 2736; test: as above; format: cell-based; conditions: 24-hour incubation
[13] = system: Propionibacterium acnes; test: as above; format: cell-based; conditions: 24-hour incubation
[14] = system: Eubacterium aerofaciens; test: as above; format: cell-based; conditions: 24-hour incubation
[15] = system: guinea pig left atria; test: Cardiac contractility in guinea pig left atria; conditions: 10^-5 molar
Source text: The A-32887 compounds are potential cardiotonic agents. In tests using guinea pig left atria, A-32887 (Na-K salt) increased cardiac contractility. Response to this test is expressed as a percentage of the maximal force that could be elicited by a challenge dose of norepinephrine. A-32887 (Na-K salt), at a 10^-5 molar concentration, increased cardiac contractility by 28.0 ± 7.1 percent.

[16] = system: Bacteriodes fragilis ssp fragilis 1877; test: Standard agar-dilution assay, anaerobic bacteria, Table IX; format: cell-based; conditions: 24-hour incubation
[17] = system: Staphylococcus aureus 3130 (Methicillin-resistant); test: Conventional disc-diffusion method, Table VII; format: cell-based
Source text: as §1
**Methicillin-resistant

[18] = system: Peptostreptococcus anaerobius; test: Standard agar-dilution assay, anaerobic bacteria, Table IX; format: cell-based; conditions: 24-hour incubation
[19] = system: Fusobacterium symbiosum; test: as above; format: cell-based; conditions: 24-hour incubation
[20] = system: E. tenella, E. maxima and E. acervulina; test: Anticoccidial feeding test in chicks, E. tenella, E. maxima and E. acervulina (Table XIII); conditions: for Percent Mortality: due to coccidiosis; for Percent Weight Gain: per survivor
[21] = system: Bacteriodes melaninogenicus 1856/28; test: Standard agar-dilution assay, anaerobic bacteria, Table IX; format: cell-based; conditions: 24-hour incubation
Procedure: (§2) Table IX summarizes the MIC's at which A-32887 (Na-K salt) inhibits various anaerobic bacteria, as determined by standard agar-dilution assay. End points were read after 24-hour incubation.

[22] = system: Bacteriodes vulgatis; test: as above; format: cell-based; conditions: 24-hour incubation
Procedure: as §2

[23] = system: Clostridium septicum; test: as above; format: cell-based; conditions: 24-hour incubation
Procedure: as §2

[24] = system: Bacteriodes fragilis ssp fragilis 111; test: as above; format: cell-based; conditions: 24-hour incubation
Procedure: as §2

[25] = system: Actinomyces israelii; test: as above; format: cell-based; conditions: 24-hour incubation
Procedure: as §2

## CO[C@H]1CC[C@H](OC2[C@@H](C)[C@@](C)(O)O[C@H]([C@H]3CC[C@H]([C@@H]4CC[C@H]([C@@]5(C)O[C@]6(O[C@H](C[C@@H]7O[C@](O)([C@@H](O)C(=O)O)[C@@H](C)[C@H](OC)[C@@]7(C)OC)C[C@@H](OC)[C@H]6C)[C@H](C)[C@H]5OC)O4)O3)[C@H]2C)O[C@@H]1C.[K+].[Na+] (some centres unmarked) [A-32887 (Na-K salt)]
[1]
  MIC: ≤ 0.5 µg/mL
[2]; 62 ppm
  Average Lesion Score, Cecal: 0.1
  Average Lesion Score, Intestinal: 0.9
  Percent Mortality: 0%
  Percent Weight Gain: 97%
[2]; 77 ppm
  Average Lesion Score, Cecal: 0
  Average Lesion Score, Intestinal: 0.7
  Percent Mortality: 0%
  Percent Weight Gain: 90%
[2]; 100 ppm
  Average Lesion Score, Cecal: 0.1
  Average Lesion Score, Intestinal: 0.6
  Percent Mortality: 0%
  Percent Weight Gain: 85%
[2]; 121 ppm
  Average Lesion Score, Cecal: 0
  Average Lesion Score, Intestinal: 0.3
  Percent Mortality: 0%
  Percent Weight Gain: 73%
[3]; 40 ppm in feed
  Average Lesion Score, Cecal: 1.6
  Average Lesion Score, Total Intestinal: 4.9
  Mortality: 0
[3]; 60 ppm in feed
  Average Lesion Score, Cecal: 0.6
  Average Lesion Score, Total Intestinal: 5.9
  Mortality: 0
[3]; 80 ppm in feed
  Average Lesion Score, Cecal: 0.3
  Average Lesion Score, Total Intestinal: 3.0
  Mortality: 0
[3]; 100 ppm in feed
  Average Lesion Score, Cecal: 0
  Average Lesion Score, Total Intestinal: 1.6
  Mortality: 0
[4]
  MIC: 2 µg/mL
[5]; 30 mcg/disc
  Zone of Inhibition: 14.0 mm
[5]; 300 mcg/disc
  Zone of Inhibition: 17.5 mm
[6]; 30 mcg/disc
  Zone of Inhibition: 13.7 mm
[6]; 300 mcg/disc
  Zone of Inhibition: 14.7 mm
[7]; 30 mcg/disc
  Zone of Inhibition: 16.0 mm
[7]; 300 mcg/disc
  Zone of Inhibition: 18.0 mm
[8]; 30 mcg/disc
  Zone of Inhibition: 12.0 mm
[8]; 300 mcg/disc
  Zone of Inhibition: 15.6 mm
[9]
  MIC: ≤ 0.5 µg/mL
[10]
  No. Died per No. in Group: 0/4
  No. with Colon Lesions/No. in Group: 2/4
[10]; total score per treatment for 25 days
  Diarrhea Index: 22
[11]
  MIC: 2 µg/mL
[12]
  MIC: 2 µg/mL
[13]
  MIC: ≤ 0.5 µg/mL
[14]
  MIC: ≤ 0.5 µg/mL
[15]
  increase of cardiac contractility (percentage of maximal force elicited by norepinephrine): 28.0 ± 7.1%
[16]
  MIC: 2 µg/mL
[17]; 30 mcg/disc
  Zone of Inhibition: 15.0 mm
[17]; 300 mcg/disc
  Zone of Inhibition: 15.2 mm
[18]
  MIC: ≤ 0.5 µg/mL
[19]
  MIC: 32 µg/mL
[20]; 25 ppm
  Average Lesion Score, Cecal: 3.9
  Average Lesion Score, Intestinal: 1.1
  Percent Mortality: 35%
  Percent Weight Gain: 57%
[20]; 50 ppm
  Average Lesion Score, Cecal: 3.8
  Average Lesion Score, Intestinal: 1.8
  Percent Mortality: 0%
  Percent Weight Gain: 79%
[20]; 75 ppm
  Average Lesion Score, Cecal: 2.0
  Average Lesion Score, Intestinal: 0.9
  Percent Mortality: 0%
  Percent Weight Gain: 90%
[20]; 100 ppm
  Average Lesion Score, Cecal: 0.1
  Average Lesion Score, Intestinal: 0
  Percent Mortality: 0%
  Percent Weight Gain: 93%
[20]; 100 ppm, pens without deaths only
  Feed/Gain: 1.50
[21]
  MIC: 32 µg/mL
[22]
  MIC: 4 µg/mL
[23]
  MIC: ≤ 0.5 µg/mL
[24]
  MIC: 2 µg/mL
[25]
  MIC: ≤ 0.5 µg/mL
